The structures appear in SMILES notation.

One assay addresses EGFR (ErbB1) T790M L858R (Homo sapiens (Human), UniProt P00533, L858R/T790M). As to the kind of experiment: Z'-LYTE kinase inhibition assay, EGFR L858R/T790M. It counts as biochemical. Conditions: for inhibition at 0.0137 µM: read-out: % inhibition against EGFR L858R/T790M (Compound at 0.0137 μM). The protocol:
Inhibitory activities of compounds against BTK, EGFR and EGFR mutants (EGFR L858R, EGFR T790M, EGFR L858R/T790M), FGFR1, FGFR2, JAK2, JAK3 and KDR were measured by Invitrogen using Z'-LYTE® Method as briefly described in the following. Test Compounds are screened in 1% DMSO (final) in the well. For 10 point titrations, 3-fold serial dilutions are conducted from the starting concentration. All ATP Solutions are diluted to a 4× working concentration in Kinase Buffer (50 mM HEPES pH 7.5, 0.01% BRIJ-35, 10 mM MgCl2, 1 mM EGTA). Peptide/Kinase Mixtures are diluted to a 2× working concentration in the appropriate Kinase Buffers as described below. (iv) Peptide/Kinase Mixtures for Measurement of EGFR (ErbB1) T790M L858R: The 2×EGFR (ErbB1) […] mixture is prepared in 50 mM HEPES pH 6.5, 0.01% BRIJ-35, 10 mM MgCl2, 1 mM EGTA, 0.02% NaN3. […] After the 1 hour Kinase Reaction incubation, 5 μL of a 1:64 dilution of Development Reagent B is added. Reaction starts by 30-second shaking of mixture consisting of 2.5 μL 4× test compound, […] 2× kinase reaction mixture and 2.5 μL 4×ATP Solution on Bar-coded Corning, low volume NBS, black 384-well plate (Corning Cat. #3676). Then the mixture is incubated for 60-minute at room temperature for the kinase reaction, followed by addition of 5 μL of a 1:1024 dilution of development reagent A and 30-second plate shake. The mixture is then incubated for another 60-minute at room temperature for development reaction. Finally fluorescence is read by plate reader. To determine IC50 of a compound against EGFR, EGFR mutant and other kinases, a series of concentrations of the compound were tested for the inhibition.

A further assay concerns H1975 cells. Description: Inhibition of cancer cell growth, MTT assay, H1975. Conditions: Homo sapiens, NCI-H1975, 72 h, read-out: IC50 in H1975 cells.
For a further assay, the target named is EGFR (ErbB1) (Homo sapiens (Human), UniProt P00533). Description: Z'-LYTE kinase inhibition assay, EGFR. It is filed as biochemical. The conditions noted are these: read-out: % inhibition against EGFR (Compound at 0.041 μM). How it is done: Inhibitory activities of compounds against BTK, EGFR and EGFR mutants (EGFR L858R, EGFR T790M, EGFR L858R/T790M), FGFR1, FGFR2, JAK2, JAK3 and KDR were measured by Invitrogen using Z'-LYTE® Method as briefly described in the following. Test Compounds are screened in 1% DMSO (final) in the well. For 10 point titrations, 3-fold serial dilutions are conducted from the starting concentration. All ATP Solutions are diluted to a 4× working concentration in Kinase Buffer (50 mM HEPES pH 7.5, 0.01% BRIJ-35, 10 mM MgCl2, 1 mM EGTA). Peptide/Kinase Mixtures are diluted to a 2× working concentration in the appropriate Kinase Buffers as described below. (i) Peptide/Kinase Mixtures for Measurement of EGFR (ErbB1): The 2×EGFR (ErbB1)/[…] mixture is prepared in 50 mM HEPES pH 7.5, 0.01% BRIJ-35, 10 mM MgCl2. 4 mM MnCl2, 1 mM EGTA, 2 mM DTT. The final 10 μL Kinase Reaction consists of 1.1-5.25 ng EGFR (ErbB1) and 2 μM […] in 50 mM HEPES pH 7.5, 0.01% BRIJ-35, 10 mM MgCl2, 2 mM MnCl2. 1 mM EGTA, 1 mM DTT. After the 1 hour Kinase Reaction incubation, 5 μL of a 1:64 dilution of Development Reagent B is added. Reaction starts by 30-second shaking of mixture consisting of 2.5 μL 4× test compound, […] 2× kinase reaction mixture and 2.5 μL 4×ATP Solution on Bar-coded Corning, low volume NBS, black 384-well plate (Corning Cat. #3676). Then the mixture is incubated for 60-minute at room temperature for the kinase reaction, followed by addition of 5 μL of a 1:1024 dilution of development reagent A and 30-second plate shake. The mixture is then incubated for another 60-minute at room temperature for development reaction. Finally fluorescence is read by plate reader. To determine IC50 of a compound against EGFR, EGFR mutant and other kinases, a series of concentrations of the compound were tested for the inhibition.
Chain of EGFR (ErbB1) (P00533 25-1210): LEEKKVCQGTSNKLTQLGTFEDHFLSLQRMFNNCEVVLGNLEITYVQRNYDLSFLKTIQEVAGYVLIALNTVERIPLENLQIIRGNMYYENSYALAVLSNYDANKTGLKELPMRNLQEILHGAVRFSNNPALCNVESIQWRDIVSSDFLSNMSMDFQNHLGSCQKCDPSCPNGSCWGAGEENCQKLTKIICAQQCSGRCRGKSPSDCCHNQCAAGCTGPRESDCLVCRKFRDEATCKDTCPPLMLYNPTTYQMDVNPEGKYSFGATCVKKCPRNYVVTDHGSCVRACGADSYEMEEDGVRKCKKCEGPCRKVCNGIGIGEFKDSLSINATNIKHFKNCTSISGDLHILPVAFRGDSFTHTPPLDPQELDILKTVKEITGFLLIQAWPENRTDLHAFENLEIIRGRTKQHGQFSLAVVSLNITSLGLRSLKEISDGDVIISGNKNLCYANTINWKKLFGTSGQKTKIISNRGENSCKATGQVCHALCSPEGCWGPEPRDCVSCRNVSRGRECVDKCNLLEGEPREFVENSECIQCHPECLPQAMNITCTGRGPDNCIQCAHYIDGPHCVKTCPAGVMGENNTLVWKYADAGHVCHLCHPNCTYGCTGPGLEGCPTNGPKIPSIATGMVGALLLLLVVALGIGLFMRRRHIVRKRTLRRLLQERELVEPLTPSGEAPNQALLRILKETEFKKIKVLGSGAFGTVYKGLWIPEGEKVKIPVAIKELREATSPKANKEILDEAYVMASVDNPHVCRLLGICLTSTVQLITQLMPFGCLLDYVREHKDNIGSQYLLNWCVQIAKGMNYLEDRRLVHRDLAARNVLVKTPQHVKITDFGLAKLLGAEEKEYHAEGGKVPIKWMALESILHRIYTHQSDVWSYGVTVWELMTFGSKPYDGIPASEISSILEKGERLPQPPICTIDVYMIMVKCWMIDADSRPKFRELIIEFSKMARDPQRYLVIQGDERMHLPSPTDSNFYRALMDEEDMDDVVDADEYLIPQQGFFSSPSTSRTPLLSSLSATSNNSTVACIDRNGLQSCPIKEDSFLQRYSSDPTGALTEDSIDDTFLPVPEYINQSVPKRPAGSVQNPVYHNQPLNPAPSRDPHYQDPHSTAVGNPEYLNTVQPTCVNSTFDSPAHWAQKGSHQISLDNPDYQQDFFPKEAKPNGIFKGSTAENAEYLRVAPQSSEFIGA

Chain of EGFR (ErbB1) T790M L858R (P00533 25-1210 T790M/L858R): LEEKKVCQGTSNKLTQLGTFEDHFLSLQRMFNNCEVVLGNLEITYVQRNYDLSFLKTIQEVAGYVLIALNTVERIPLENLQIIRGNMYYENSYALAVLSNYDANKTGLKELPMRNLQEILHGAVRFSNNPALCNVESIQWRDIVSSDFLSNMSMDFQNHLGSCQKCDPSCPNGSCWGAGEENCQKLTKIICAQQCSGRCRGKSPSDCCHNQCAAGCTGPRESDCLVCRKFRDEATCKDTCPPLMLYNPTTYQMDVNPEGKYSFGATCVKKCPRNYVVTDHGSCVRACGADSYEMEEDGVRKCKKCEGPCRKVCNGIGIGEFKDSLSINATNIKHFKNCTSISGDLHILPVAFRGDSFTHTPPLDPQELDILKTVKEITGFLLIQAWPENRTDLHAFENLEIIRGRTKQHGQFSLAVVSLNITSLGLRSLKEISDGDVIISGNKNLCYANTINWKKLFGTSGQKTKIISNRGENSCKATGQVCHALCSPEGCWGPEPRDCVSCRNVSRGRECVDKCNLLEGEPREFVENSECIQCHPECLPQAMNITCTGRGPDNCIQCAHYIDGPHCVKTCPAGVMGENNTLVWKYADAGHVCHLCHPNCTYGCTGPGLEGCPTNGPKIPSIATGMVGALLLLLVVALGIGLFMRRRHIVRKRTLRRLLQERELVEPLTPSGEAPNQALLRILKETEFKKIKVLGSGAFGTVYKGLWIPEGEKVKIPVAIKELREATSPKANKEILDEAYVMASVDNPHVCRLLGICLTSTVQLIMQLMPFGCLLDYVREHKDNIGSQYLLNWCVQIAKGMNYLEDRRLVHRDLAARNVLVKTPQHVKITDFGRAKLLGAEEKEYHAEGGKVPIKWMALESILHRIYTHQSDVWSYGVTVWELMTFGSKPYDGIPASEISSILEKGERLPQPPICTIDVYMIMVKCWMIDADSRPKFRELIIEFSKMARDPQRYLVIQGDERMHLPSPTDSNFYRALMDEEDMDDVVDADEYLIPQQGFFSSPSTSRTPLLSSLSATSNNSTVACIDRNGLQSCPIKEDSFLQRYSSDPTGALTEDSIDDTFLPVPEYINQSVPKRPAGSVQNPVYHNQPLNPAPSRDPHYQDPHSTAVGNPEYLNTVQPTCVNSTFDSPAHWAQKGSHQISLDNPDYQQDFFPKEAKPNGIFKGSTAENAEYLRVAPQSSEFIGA

For the compound `CCC(=O)Nc1cccc(-c2c(C)ccc3cnc(Nc4ccc(N5CCN(C)CC5)cc4)nc23)c1` [Example C042, N-(3-(7-methyl-2-((4-(4-methylpiperazin-1-yl)phenyl)amino)quinazolin-8-yl)phenyl)propionamide], at EGFR (ErbB1) T790M L858R, the inhibition at 0.0137 µM was < 50%. Besides, the IC50 in the assay with H1975 cells was > 0.5 µM. Also, the inhibition at 0.041 µM at EGFR (ErbB1) was > 50%.
On the same counts, the results for `CC(=O)N1CCN(c2ccc(Nc3ncc4cccc(-c5cccc(NC(=O)/C=C/CN(C)C)c5)c4n3)cc2)CC1` [Example C050, (E)-N-(3-(2-((4-(4-acetylpiperazin-1-yl)phenyl)amino)quinazolin-8-yl)phenyl)-4-(dimethylamino)but-2-enamide] are > 50%, > 0.5 µM and < 50%.
On the same counts, the results for `CN(C)C/C=C/C(=O)Nc1cccc(-c2cccc3cnc(Nc4ccc(N5CCN(C)CC5)cc4)nc23)c1` [Example C052, (E)-4-(dimethylamino)-N-(3-(2-((4-(4-methylpiperazin-1-yl)phenyl)amino)quinazolin-8-yl)phenyl)but-2-enamide] are > 50%, 0.1 to 0.5 µM and < 50%.
On the same counts, the results for `CN(C)C/C=C/C(=O)Nc1cccc(-c2cccc3cnc(Nc4ccc(N5CCN(C)CC5)cc4)nc23)c1F` [Example C062, (E)-4-(dimethylamino)-N-(2-fluoro-3-(2-((4-(4-methylpiperazin-1-yl)phenyl)amino)quinazolin-8-yl)phenyl)but-2-enamide] are > 50%, 0.1 to 0.5 µM and > 50%.
`C=CC(=O)Nc1cccc(-c2cccc3cnc(Nc4ccc(N(C)CCF)cc4)nc23)c1` [Example C064, N-(3-(2-((4-((2-fluoroethyl)(methyl)amino)phenyl)amino)quinazolin-8-yl)phenyl)acrylamide]: the inhibition at 0.0137 µM at EGFR (ErbB1) T790M L858R was < 50%. Also, the IC50 in the assay on H1975 cells was > 0.5 µM. At EGFR (ErbB1), the inhibition at 0.041 µM is < 50%.
On to `C=CC(=O)Nc1cccc(-c2cccc3cnc(Nc4ccc(N(C)CCF)cc4)nc23)c1F` [Example C065, N-(2-fluoro-3-(2-((4-((2-fluoroethyl)(methyl)amino)phenyl)amino)quinazolin-8-yl)phenyl)acrylamide], for which, on EGFR (ErbB1) T790M L858R, the inhibition at 0.0137 µM is < 50%. Further, the IC50 in the assay on H1975 cells lay within 0.1 to 0.5 µM. For the same compound, on EGFR (ErbB1), the inhibition at 0.041 µM was < 50%.
In the case of `C=CC(=O)Nc1cccc(-c2cccc3cnc(Nc4ccc(NCCO)cc4)nc23)c1` [Example C066, N-(3-(2-((4-((2-hydroxyethyl)amino)phenyl)amino)quinazolin-8-yl)phenyl)acrylamide], the inhibition at 0.0137 µM on EGFR (ErbB1) T790M L858R was < 50%. The IC50 with H1975 cells is > 0.5 µM. At EGFR (ErbB1), the inhibition at 0.041 µM is < 50%.
In the case of `C=CC(=O)Nc1ccc(F)c(-c2cccc3cnc(Nc4ccc(N5CCN(C)CC5)cc4)nc23)c1` [Example C067, N-(4-fluoro-3-(2-((4-(4-methylpiperazin-1-yl)phenyl)amino)quinazolin-8-yl)phenyl)acrylamide], the inhibition at 0.0137 µM at EGFR (ErbB1) T790M L858R was > 50%. The IC50 on EGFR (ErbB1) T790M L858R (read-out: IC50 against EGFR L858R/T790M) and in the assay with H1975 cells was < 0.1 µM throughout. The inhibition at 0.041 µM at EGFR (ErbB1) was > 50%.
As to `C=CC(=O)N1CCN(c2cccc3cnc(Nc4ccc(N5CCN(C)CC5)cc4)nc23)CC1` [Example C070, 1-(4-(2-((4-(4-methylpiperazin-1-yl)phenyl)amino)quinazolin-8-yl)piperazin-1-yl)prop-2-en-1-one], the inhibition at 0.0137 µM on EGFR (ErbB1) T790M L858R was < 50%. In addition, the IC50 in the assay with H1975 cells was > 0.5 µM. Further, the inhibition at 0.041 µM on EGFR (ErbB1) was < 50%.
Take `C=CC(=O)N1CCC=C(c2cccc3cnc(Nc4ccc(N5CCN(C)CC5)cc4)nc23)C1` [Example C071, 1-(3-(2-((4-(4-methylpiperazin-1-yl)phenyl)amino)quinazolin-8-yl)-5,6-dihydropyridin-1(2H)-yl)prop-2-en-1-one]: the inhibition at 0.0137 µM on EGFR (ErbB1) T790M L858R was < 50%. Besides, in the assay on H1975 cells, the IC50 was > 0.5 µM. At EGFR (ErbB1), the inhibition at 0.041 µM was < 50%.
Turning to `C=CC(=O)Nc1ccc(Cl)c(-c2cccc3cnc(Nc4ccc(N5CCN(C)CC5)cc4)nc23)c1` [Example C073, N-(4-chloro-3-(2-((4-(4-methylpiperazin-1-yl)phenyl)amino)quinazolin-8-yl)phenyl)acrylamide], on EGFR (ErbB1) T790M L858R, the inhibition at 0.0137 µM was > 50%. Besides, the IC50 with H1975 cells lay within 0.1 to 0.5 µM. Moreover, the inhibition at 0.041 µM at EGFR (ErbB1) is < 50%.
On the same counts, the results for `C=CC(=O)Nc1cccc(-c2cccc3cnc(Nc4ccc(N5CCN(C(=O)OC)CC5)cc4)nc23)c1` [Example C076, methyl 4-(4-((8-(3-acrylamidophenyl)quinazolin-2-yl)amino)phenyl)piperazine-1-carboxylate] are < 50%, > 0.5 µM and < 50%.
For the compound `C=CC(=O)Nc1cccc(-c2cccc3cnc(Nc4ccc(N5CCN(CCO)CC5)c(F)c4)nc23)c1` [Example C142, N-(3-(2-((3-fluoro-4-(4-(2-hydroxyethyl)piperazin-1-yl)phenyl)amino)quinazolin-8-yl)phenyl)acrylamide], the IC50 in the assay on H1975 cells was < 0.1 µM.
In the case of `C=CC(=O)Nc1cccc(-c2cccc3cnc(Nc4ccc(OC5CCN(CCF)CC5)cc4F)nc23)c1` [Example C157, N-(3-(2-((2-fluoro-4-((1-(2-fluoroethyl)piperidin-4-yl)oxy)phenyl)amino)quinazolin-8-yl)phenyl)acrylamide], the inhibition at 0.0137 µM at EGFR (ErbB1) T790M L858R is < 50%. Besides, the IC50 with H1975 cells was > 0.5 µM.
Turning to `C=CC(=O)Nc1cccc(-c2cccc3cnc(Nc4ccc(-n5cccn5)cc4)nc23)c1` [Example C158, N-(3-(2-((4-(1H-pyrazol-1-yl)phenyl)amino)quinazolin-8-yl)phenyl)acrylamide], on EGFR (ErbB1) T790M L858R, the inhibition at 0.0137 µM is < 50%. Besides, the IC50 in the assay with H1975 cells lay in the range of 0.1 to 0.5 µM.
On the same counts, the results for `C=CC(=O)Nc1cccc(-c2cccc3cnc(Nc4ccc(-c5cn[nH]c5)cc4)nc23)c1` [Example C159, N-(3-(2-((4-(1H-pyrazol-4-yl)phenyl)amino)quinazolin-8-yl)phenyl)acrylamide] are < 50% and > 0.5 µM.
On the same counts, the results for `C=CC(=O)Nc1cccc(-c2cccc3cnc(Nc4cc(F)c(N5CCN(C)CC5)cc4F)nc23)c1` [Example C160, N-(3-(2-((2,5-difluoro-4-(4-methylpiperazin-1-yl)phenyl)amino)quinazolin-8-yl)phenyl)acrylamide] are < 50% and 0.1 to 0.5 µM.
For the compound `C=CC(=O)Nc1cccc(-c2cccc3cnc(Nc4cc(F)c(N5CCN(CC(C)(C)O)CC5)cc4F)nc23)c1` [Example C163, N-(3-(2-((2,5-difluoro-4-(4-(2-hydroxy-2-methylpropyl)piperazin-1-yl)phenyl)amino)quinazolin-8-yl)phenyl)acrylamide], in the assay on H1975 cells, the IC50 lay in the range of 0.1 to 0.5 µM.

Values taken from patent US10172868B2, “Substituted quinazolines for inhibiting kinase activity” (NeuPharma, Inc., priority 2013, dated 2019).
